Drawing on patent publication US6624182B1, “Hydroxyphenylvinylthiazoles” (Ciba Specialty Chemicals Corporation, priority 1999, dated 2003), this text covers MIC for three compounds.

Structures are written as SMILES. A value given as a limit tells only on which side of the number the result lay.

Experiment in all cases: Determination of the minimum inhibitory concentration (MIC value) in microtitre plates
One test deals with E. coli. Type of test: cell-based, Escherichia coli NCTC 8196. Particulars: Escherichia coli; optical density at 620 nm, 48 hours at 37° C., MIC = ≦20% growth; tested at 100; 10 and 1 ppm (approximate values); (2), (3), (4) at 120; 60; 30; 15; 7.5; 3.75 ppm. An outline of the steps:
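E. coli NCTC 8196 grown overnight in CASO bouillon, adjusted to 1−5×10^6 KBE/ml, diluted 1:100 and added to DMSO-dissolved compounds in 1:2 dilution series. Incubated 48 h at 37° C; growth read as OD 620 nm. MIC is the lowest concentration giving ≤20% growth versus growth control; duplicates.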

For the next test, the system named is P. aeruginosa. Type of test: cell-based, Pseudomonas aeruginosa CIP A-22. The settings on record: Pseudomonas aeruginosa; optical density at 620 nm, 48 hours at 37° C., MIC = ≦20% growth; tested at 100; 10 and 1 ppm (approximate values); (2), (3), (4) at 120; 60; 30; 15; 7.5; 3.75 ppm. In outline: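 P. aeruginosa CIP A-22 at 1−5×10^6 KBE/ml, diluted 1:100 in CASO bouillon, exposed to 1:2 serial dilutions of DMSO-dissolved compound for 48 h at 37 °C, in duplicate. Growth read by OD 620 nm; MIC is the lowest concentration giving ≤20% growth relative to growth control.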

The subject of the next test is C. albicans. It is filed as cell-based, Candida albicans ATCC 10231. The settings on record: Candida albicans; optical density at 620 nm, 48 hours at 37° C., MIC = ≦20% growth; tested at 100; 10 and 1 ppm (approximate values); (2), (3), (4) at 120; 60; 30; 15; 7.5; 3.75 ppm. An outline of the steps:
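Candida albicans ATCC 10231 grown overnight in CASO broth, adjusted to 1–5×10^6 CFU/ml then diluted 1:100, was exposed to 1:2 serial dilutions of compound (DMSO) for 48 h at 37 °C. Growth was read as OD620; MIC was the concentration giving ≤20% growth versus control, tested in duplicate.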

With `Oc1ccc(/C=C/c2nc(-c3ccc(F)cc3)cs2)cc1` [Compound of formula (2)], the MIC was more than 100 µg/mL in the test with E. coli, more than 100 µg/mL in the test on P. aeruginosa and 30 µg/mL in the test with C. albicans.
As to `CC(C)(C)c1csc(/C=C/c2ccccc2O)n1` [Compound of formula (3)], the MIC against E. coli, with P. aeruginosa and against C. albicans was more than 100 µg/mL in each case.
For the compound `Oc1ccc(/C=C/c2nc(-c3ccccc3)cs2)cc1` [Compound of formula (4)], the MIC against E. coli was more than 100 µg/mL; in the test with P. aeruginosa, more than 100 µg/mL; in the test on C. albicans, 30 µg/mL.
